Measured values taken from US12338263B2, “Antibacterial aminoglycoside derivatives” (priority 2019, dated 2025).
≈ marks a conversion by molar mass, not a printed value. Like-named read-outs stand apart in the source and are kept apart here.

Columns and labels:
[1] = Toxicity test on HK-2 cells (Alma Blue); format: cell-based; conditions: human
Description: (§1) On the day of the experiment, when the HK-2 cells in the culture flask reached 80%-90% confluent, the culture medium was discarded, the cells were washed twice with Dulbecco's phosphate buffered saline (DPBS) and digested for 1 to 2 minutes with 3 mL trypsin (T150 cell culture flask), and immediately 9 ml complete medium (RPMI1640+10% FBS) were added to terminate the digestion. After termination, single cells suspension were formed by pipetting gently, which were centrifuged at 1000 […] for 5 minutes. The supernatant was discarded, and fresh complete medium were added, and the cells were pipetted evenly. The actual cell density was measured according to the cell counter and the cell suspension was adjusted to 2.5×10^5 cells/mL. 80 μL of cell suspension was drawn by a row pipettor and added into a 96-well black bottom plate (2×10^4 cell/well), and then incubated in a carbon dioxide incubator for 4.5 hours, which was defined as a cell plate.
(§2) • a. The compound mother liquor was prepared according to the following table, with complete medium as the solvent;
(§3) • b. 50 microliters of complete medium was added into columns 3-11 in the 96-v well plate; • c. 75 microliters of test compound (50 mg/mL) and positive control were added to the second column of the 96-v well plate; • d. 25 microliters of compound was drawn from the second column and added into the third column, blown and sucked a few times by a row pipettor, then 25 microliters of liquid was drawn from the third column and added to the fourth column, and subsequently subjected to a 3-fold series dilution until the 10th column. From column 2 to column 11, the compound concentration was 50, 16.67, 5.56, 1.85, 0.62, 0.21, 0.07, 0.02, 0.008, 0 mg/mL; • e. 20 μL compound solutions of various concentrations prepared were transferred by a row pipettor to the corresponding wells of the cell plate, which was defined as a testing plate. Culture of the Testing Plate:
(§4) All the plates were incubated in an incubator at 37° C., 5% CO2 for 43 hours.
(§5) After incubation, 10 microliters of Alma Blue was added to the testing plate. The testing plate was immediately incubated in an incubator at 37° C., 5% CO2 for 3 hours. Then the fluorescence value of each well of the testing plate was read by a microplate reader (wavelength Ex 540 nm/Em 585 nm). Then prism software was used to simulate the curve to calculate CC50 value.

HK-2 cells = assay: Toxicity test on HK-2 cells (Alma Blue); format: cell-based; conditions: for Maximum inhibition rate: 43 hours incubation plus 3 hours Alma Blue
Description: as §1, §2, §3, §4, §5

[2] = tested on: Klebsiella pneumoniae ATCC-BAA-1705; assay: Drug efficacy in mice (mouse pneumonia model); format: in vivo; conditions: CD-1 mice, 10 mpk and 30 mpk subcutaneously 2 h and 10 h after infection, read at 24 h; FIG. 2
Description: 21 CD-1 mice were divided into 7 cages, 3 mice per cage, and were injected intraperitoneally with the immunosuppressant cyclophosphamide (150 mpk) on the 4th day.
On the first day, 7 cages of mice were injected intraperitoneally again with the immunosuppressant cyclophosphamide (100 mpk). The strain Kpn ATCC-BAA-1705 (Klebsiella pneumoniae ATCC-BAA-1705) was recovered on a MHA plate. The recovered colonies were picked and dissolved in saline to prepare Kpn ATCC-BAA-1705 bacterial solution with a concentration of 4.00E+08 CFU/mL for later use in mouse lung infection. The amount of bacterial solution infected in the lung of experimental mice was 50 μL/mouse, that is, the inoculation amount was 2.00E+07 CFU/mouse. At 2 h and 24 h infection, the lung tissue of the mice in control group was taken and placed in 5 mL saline, homogenized, and dotted on a plate with gradient dilution.
The specific administration of mice was as follows: • (1) 2 h after infection: At the end of 2 h after infection, the lung tissue of the mice in the first cage was taken and placed in 5 mL saline, homogenized, and dotted on a plate with gradient dilution, two duplications for each mouse. The amount of bacteria loaded in the lung tissue of the mouse was counted. Mice in the third and fourth cages were injected respectively with 30 mpk and 10 mpk compound Plazomicin subcutaneously, mice in the fifth and sixth cages were injected respectively with 30 mpk and 10 mpk compound subcutaneously, and mice in the seventh cage were injected with 100 mpk meropenem subcutaneously. • (2) 10 h after infection: Mice in the third and fourth cages were injected respectively with 30 mpk and 10 mpk plazomicin subcutaneously, mice in the fifth and sixth cages were injected respectively with 30 mpk and 10 mpk compound 1 subcutaneously, and mice in the seventh cage were injected with 100 mpk meropenem subcutaneously. At the end of 24 h infection, the lung tissue of the mice in the second to seventh cages was taken and placed in 5 mL saline, homogenized, and dotted on a plate with gradient dilution, two duplications for each mouse. The amount of bacteria carried in the lung tissue of the mouse was counted, and the experimental results were summarized and shown in FIG. 2.

spiral ganglion neurons = assay: Auditory safety: density of spiral ganglion neurons; format: in vivo, guinea pigs
Description: (§6) Healthy adult guinea pigs (150-250 g) were employed as the research objects, and were randomly divided into saline control group, gentamicin group, compound Plazomicin group and Compound 1 group, with 8 animals in each group. Subcutaneous administration is used, and the following assays were carried out during and after the administration for 14 consecutive days: • 1. To analyze the effects of different drugs on the auditory function of guinea pigs, the compound action potential (CAP) of animals was recorded on the 14th day (29th day, i.e., 4 weeks) after administration. The results obtained were analyzed and the changes of the threshold shift, amplitude, latency and other indicators among different treatment groups were compared. • 2. After the different groups of animals were processed and the auditory function data thereof were collected, the cochlea of the animals was taken out for fixation and staining. Surface preparation of basilar membrane of the cochlea on one side was performed to count the loss of hair cells so as to make a cochlea map, and the cochlea on the other side was decalcified and frozen sectioned. The density of spiral ganglion neurons was counted and compared among groups. Research Results: 1. Administration Method and Treatment
(§7) Gentamicin from Dalian Meilun Biotechnology Co., Ltd., and Plazomicin and Compound 1 from WuXi AppTec (WuHan) Co., Ltd. are used, the solution of which were prepared just before use each time by using saline for dissolution to the concentration of 50 mg/mL, and the injection dose was 100 mg/kg body weight. Method: subcutaneous injection, and confirmation of no liquid leakage after each injection.
The cochlea of the guinea pig was defined as Turn 1, Turn 2, Turn 3, and Turn 4 from the basal to the apical turn. The spiral ganglion neurons (SGNs) were stained with TuJ on frozen sections, and the density thereof in a specific area were counted and compared between groups. […] Through the two-way ANOVA, there was a significant difference between the groups, F(3, 74)=35.43, p<0.0001 (see FIG. 7).

cochlear hair cells = assay: Auditory safety: hair cell staining and counting on the basilar membrane of the cochlea; format: in vivo, guinea pigs
Description: as §6, §7
In order to compare the effects of different drugs on hair cells, hair cell staining and counting on the whole basilar membrane of the cochlea are performed. […] The Plazomicin group had 11.2-28.1% loss of outer hair cells in the high frequency (70-100% from the apical turn) and 16.7-24.2% loss of the outer hair cells at the beginning of the apical turn (10-20%). However, in the Compound 1 group, the loss of outer hair cells only occurred in the low-frequency region (from the top turn −40%), in which the loss rate of outer hair cells was about 2.5-11%, and the outer hair cells were relatively intact in the high frequency area (see FIG. 6 B).

[3] = tested on: auditory function in guinea pigs; assay: Auditory safety: compound action potential (CAP) in guinea pigs; format: in vivo
Description: as §6, §7
The compound action potential (CAP) was tested and recorded when clicks and different frequencies of pure tones (1 KHz-32 kHz) were applied to each group of animals, and variations in amplitude and latency were mainly compared when clicks and medium and high frequency pure tones (16, 32 kHz) were applied. The magnitude of amplitude reflects the responsiveness of hair cells and auditory nerves. The larger the amplitude and the greater the slope of the I/O curve were, the better the responsiveness and the better the function were. In addition, the cochlea from apical turn to basal turn was responsive to sounds from low-frequency to high-frequency respectively, which is the frequency correspondence of the cochlear basilar membrane. The functional changes to different frequencies correspond to the different structural and functional changes of the cochlea fromapical turn to basal turn. The length of latency was also related to the function of the hair cells and auditory nerve response. Generally speaking, increasing of the threshold value when the cochlea was injured would inevitably lead to the extension of latency. […] In other words, the extension of latency reflected the decrease of response function. The previous ototoxicity of aminoglycoside antibiotics was mainly concentrated in the high-frequency area. In this study, the gentamicin group was consistent with previous results, as summarized below.

[4] = 43 hours incubation plus 3 hours Alma Blue, read-out: CC50 of HK-2 cell
[5] = predicted from toxicity regression curve, read-out: CC50 of compound on cells predicted by software (Prism)
[6] = guinea pig, in vivo, sc, 100 mg/kg
[7] = guinea pig, in vivo, sc, 100 mg/kg, 29 day
[8] = position 10 (% from the apical turn)
[9] = position 20 (% from the apical turn)
[10] = position 30 (% from the apical turn)
[11] = position 40 (% from the apical turn)
[12] = position 50 (% from the apical turn)
[13] = position 60 (% from the apical turn)
[14] = position 70 (% from the apical turn)
[15] = position 80 (% from the apical turn)
[16] = position 90 (% from the apical turn)
[17] = position 100 (% from the apical turn)

NCC[C@H](O)C(=O)N[C@@H]1C[C@H](N)[C@@H](O[C@H]2O[C@H](CN)[C@@H](O)[C@H](O)[C@H]2O)[C@H](O)[C@H]1O[C@H]1O[C@H](CO)[C@@H](O)[C@H](N)[C@H]1O [Amikacin]
CC50 at 43 h [1, 4]: 8.16 mg/mL
CC50 at 43 h [1, 5]: 8.16 mg/mL (≈ 13.9 mM)
Maximum inhibition rate (HK-2 cells): 68.40%

CCN[C@@H]1C[C@H](N)[C@@H](O[C@H]2OC(CN)=CC[C@H]2N)[C@H](O)[C@H]1O[C@H]1OC[C@](C)(O)[C@H](NC)[C@H]1O [Netilmicin]
CC50 at 43 h [1, 4]: 10.6 mg/mL
CC50 at 43 h [1, 5]: 10.6 mg/mL (≈ 22.4 mM)
Maximum inhibition rate (HK-2 cells): 48.73%

CN[C@@H]1[C@@H](O)[C@@H](O[C@@H]2[C@@H](O)[C@H](O[C@H]3OC(CNCCO)=CC[C@H]3N)[C@@H](N)C[C@H]2NC(=O)[C@@H](O)CCN)OC[C@]1(C)O [Plazomicin]
in vivo activity in lung infection model (bacteria in lung tissue) [2]: good in vivo activity
damage to spiral ganglion neurons (SGN density vs Control group) (spiral ganglion neurons; [6]): decrease in SGN density near the apical turn
CC50 at 43 h [1, 4]: > 10 mg/mL
CC50 at 43 h [1, 5]: 19.5 mg/mL (≈ 33 mM)
toxicity to HK-2 cells compared with Netilmicin and Amikacin (HK-2 cells): significantly lower than that of Netilmicin and Amikacin
Maximum inhibition rate (HK-2 cells): 35.98%
loss of inner hair cells (cochlear hair cells; guinea pig, in vivo, 29 day): 3.5±3.0%
CAP amplitude under click [3, 6]: caused hearing damage
CAP amplitude at 16 kHz [3, 7]: 282.058±22.569 uv
CAP amplitude at 32 kHz [3, 7]: 62.982±7.561 uv
hearing damage (CAP amplitude) at 16 kHz [3, 7]: 25.9%
hearing damage (CAP amplitude) at 32 kHz [3, 7]: 48.2%

Gentamicin
Density of spiral ganglion neurons on Day 29 (spiral ganglion neurons; Turn 1 (basal turn)): 4.407 ± 0.517 n/10000 μm^2
Density of spiral ganglion neurons on Day 29 (spiral ganglion neurons; Turn 2): 5.540 ± 0.757 n/10000 μm^2
Density of spiral ganglion neurons on Day 29 (spiral ganglion neurons; Turn 3): 4.604 ± 0.598 n/10000 μm^2
Density of spiral ganglion neurons on Day 29 (spiral ganglion neurons; Turn 4 (apical turn)): 5.259 ± 0.280 n/10000 μm^2
damage to spiral ganglion neurons (SGN density vs Control group) (spiral ganglion neurons; guinea pigs, 100 mg/kg subcutaneous 14 days, FIG. 7): obvious damage in each turn
loss of outer hair cells (cochlear hair cells; medium and high frequency region (60-100% from the apical turn)): 12-67.7%
loss of inner hair cells (cochlear hair cells; near the end of the basal turn (100% from the apical turn)): 9.3±4.1%
Damage of inner hair cells on Day 29 (cochlear hair cells; [8]): 0%
Damage of outer ear hair cells on Day 29 (cochlear hair cells; [8]): 9.5 ± 2.9%
Damage of inner hair cells on Day 29 (cochlear hair cells; [9]): 0%
Damage of outer ear hair cells on Day 29 (cochlear hair cells; [9]): 4.1 ± 0.7%
Damage of inner hair cells on Day 29 (cochlear hair cells; [10]): 0%
Damage of outer ear hair cells on Day 29 (cochlear hair cells; [10]): 2.7 ± 0.7%
Damage of inner hair cells on Day 29 (cochlear hair cells; [11]): 0%
Damage of outer ear hair cells on Day 29 (cochlear hair cells; [11]): 3.2 ± 1.0%
Damage of inner hair cells on Day 29 (cochlear hair cells; [12]): 0%
Damage of outer ear hair cells on Day 29 (cochlear hair cells; [12]): 3.2 ± 1.5%
Damage of inner hair cells on Day 29 (cochlear hair cells; [13]): 0.4 ± 0.4%
Damage of outer ear hair cells on Day 29 (cochlear hair cells; [13]): 12.6 ± 5.6%
Damage of inner hair cells on Day 29 (cochlear hair cells; [14]): 0.6 ± 0.6%
Damage of outer ear hair cells on Day 29 (cochlear hair cells; [14]): 13.6 ± 6.1%
Damage of inner hair cells on Day 29 (cochlear hair cells; [15]): 0.2 ± 0.2%
Damage of outer ear hair cells on Day 29 (cochlear hair cells; [15]): 12.0 ± 5.4%
Damage of inner hair cells on Day 29 (cochlear hair cells; [16]): 2.5 ± 1.7%
Damage of outer ear hair cells on Day 29 (cochlear hair cells; [16]): 42.8 ± 8.2%
Damage of inner hair cells on Day 29 (cochlear hair cells; [17]): 9.3 ± 4.1%
Damage of outer ear hair cells on Day 29 (cochlear hair cells; [17]): 67.7 ± 9.8%
CAP amplitude at 16 kHz ([3]; guinea pigs, 100 mg/kg subcutaneous 14 days, 29th day, 16 kHz, 90 dB): 373.329±15.332 uv
CAP amplitude at 32 kHz ([3]; guinea pigs, 100 mg/kg subcutaneous 14 days, 29th day, 32 kHz, 90 dB): 31.272±5.137 uv
CAP amplitude under click ([3]; guinea pigs, 100 mg/kg subcutaneous 14 days, 29th day, click): consistent with the Control group
hearing damage (CAP amplitude) at 32 kHz ([3]; guinea pigs, 100 mg/kg subcutaneous for 14 consecutive days, 29th day, 32 kHz): 74.3%
